Source: patent US8278312B2, “Imidazo 1,2-a pyrimidine derivatives for the treatment of diseases such as diabetes” (Merck Patent Gesellschaft mit Beschränkter Haftung, priority 2007, dated 2012)

Columns and labels:
SGLT1 = molecular target: T1, SGLT1 (Homo sapiens, UniProt P13866); experiment: 14C-AMG uptake in BHK cells transfected with SGLT1 (96-well cell-based assay); settings: 50 μM AMG, 37° C., 90 min
T1 construct: expressed in transfected cells
T1 sequence (P13866 1-664): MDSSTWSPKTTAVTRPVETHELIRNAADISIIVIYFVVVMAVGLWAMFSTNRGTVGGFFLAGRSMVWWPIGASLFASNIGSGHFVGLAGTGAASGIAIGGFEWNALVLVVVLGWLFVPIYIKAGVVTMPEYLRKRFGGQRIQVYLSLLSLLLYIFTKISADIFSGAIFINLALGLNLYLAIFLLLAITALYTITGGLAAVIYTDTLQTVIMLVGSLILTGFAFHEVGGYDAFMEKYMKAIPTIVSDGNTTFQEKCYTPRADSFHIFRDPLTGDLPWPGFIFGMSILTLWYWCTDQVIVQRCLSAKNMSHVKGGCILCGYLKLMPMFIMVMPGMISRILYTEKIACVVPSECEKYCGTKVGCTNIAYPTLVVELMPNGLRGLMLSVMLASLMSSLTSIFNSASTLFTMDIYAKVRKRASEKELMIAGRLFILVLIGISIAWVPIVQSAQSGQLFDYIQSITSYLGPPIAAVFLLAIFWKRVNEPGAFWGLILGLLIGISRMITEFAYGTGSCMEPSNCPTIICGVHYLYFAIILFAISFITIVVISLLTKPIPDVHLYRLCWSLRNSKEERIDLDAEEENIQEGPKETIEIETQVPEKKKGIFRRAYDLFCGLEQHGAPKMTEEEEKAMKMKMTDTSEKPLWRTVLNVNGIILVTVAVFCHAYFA
Text: (§1) The compounds can be tested for their SGLT inhibition properties by means of BHK cells expressing SGLT1 and SGLT2. The production of the cells and the testing can be carried out as described below.
To construct the SGLT1 expression vector (KL225), the SLC5A1 gene (homologous to NM_000343) was amplified from a cDNA library using standard PCR technology and cloned over NheI/XhoI sites into the pcDNA3.1 expression vector (Invitrogen) containing neomycin as a selection marker. In this vector, transcription uses the enhancer/promoter of human cytomegalovirus.
(§2) The final vector KL225 together with an additional vector containing a dihydrofolate reductase gene as a selection marker was introduced into cells. Transfection into BHK21 cells (ATCC CCL-10), cultivated in DMEM medium (GIBCO/BRL), supplemented with 10% foetal calf serum (FCS) and 20 mM glutamine, was carried out using calcium phosphate transfections according to Graham, F. L. and van der Ebb, A. J. (1973), Virology 52: 456 with 5-20 μg of uncut plasmids for 10^7 cells. Stable transfectants were selected in medium containing 1 mg/ml of G418 (GIBCO/BRL) and 20-5000 nM methotrexate as final concentration, where only cells which expressed the neomycin gene and overexpressed the dhfr gene were able to grow. After growth for 2-3 weeks, the cells were cloned (0.5 cells/well) and the clones were investigated for SGLT expression in radioactivity uptake tests. […]
(§3) A 96-well cell-based assay was developed and adapted to HTS requirements:
(§4) BHK cells (transfected with SGLT1 or SGLT2) were seeded into 96-well microtitre plates (Cultureplates, Perkin Elmer). After at least 24 h, medium was removed, and the cell layer was washed with assay buffer (140 mM NaCl, 2 mM KCl, 1 mM CaCl2, 1 mM MgCl2, 10 mM HEPES, 5 mM Tris, adjusted to pH 7.4 using 1 M KOH). After addition of 40 μl of assay buffer, 50 μl of AMG (50 μM for SGLT1 and 2 mM for SGLT2) in the presence or absence of compounds, the cells were incubated in a total volume of 100 μl at 37° C. for 90 min. Supernatant was removed by suction and discarded. Cells were washed and lysed by addition of 50 μl of water. After 10 min at room temperature, 200 μl of Micrsoscint 40 (Perkin Elmer) were added. The radioactivity was counted in a Topcount microplate scintillation counter (Perkin Elmer). The non-specific uptake was determined in sodium-free assay buffer (266 mM sucrose, 2 mM KCl, 1 mM CaCl2, 1 mM MgCl2, 10 mM HEPES, 5 mM Tris, adjusted to pH 7.4 using 1 M KOH).

SGLT2 = molecular target: T2, SGLT2 (Homo sapiens, UniProt P31639); experiment: 14C-AMG uptake in BHK cells transfected with SGLT2 (96-well cell-based assay); settings: 2 mM AMG, 37° C., 90 min
T2 construct: expressed in transfected cells
T2 sequence (P31639 1-672): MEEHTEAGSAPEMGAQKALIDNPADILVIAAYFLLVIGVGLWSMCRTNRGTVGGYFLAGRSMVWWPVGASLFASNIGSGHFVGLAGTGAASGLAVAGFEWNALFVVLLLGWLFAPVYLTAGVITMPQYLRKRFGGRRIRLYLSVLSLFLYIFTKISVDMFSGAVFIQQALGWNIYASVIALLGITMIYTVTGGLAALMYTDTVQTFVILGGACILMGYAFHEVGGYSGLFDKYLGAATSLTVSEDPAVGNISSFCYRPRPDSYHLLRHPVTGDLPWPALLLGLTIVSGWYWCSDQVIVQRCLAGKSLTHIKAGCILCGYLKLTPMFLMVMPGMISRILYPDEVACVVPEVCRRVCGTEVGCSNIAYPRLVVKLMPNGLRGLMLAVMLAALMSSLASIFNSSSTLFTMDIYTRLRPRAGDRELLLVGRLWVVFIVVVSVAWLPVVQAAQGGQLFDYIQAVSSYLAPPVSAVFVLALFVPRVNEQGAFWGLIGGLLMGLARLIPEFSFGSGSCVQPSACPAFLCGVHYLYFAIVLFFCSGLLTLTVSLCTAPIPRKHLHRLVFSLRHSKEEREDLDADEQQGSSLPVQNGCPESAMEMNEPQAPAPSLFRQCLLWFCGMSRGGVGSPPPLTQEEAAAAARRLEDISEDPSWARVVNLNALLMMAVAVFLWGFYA
Text: as §1
To construct the SGLT2 expression vector (KL224), the SLC5A2 gene (homologous to NM_003041) was amplified from a cDNA library using standard PCR technology and cloned over NheI/XhoI sites into PCI-neo expression vector (Promega) containing neomycin as a selection marker. In this vector, transcription uses the enhancer/promoter of human cytomegalovirus and the SV40 polyadenylation signal.
as §2, with “KL224” for “KL225”
as §3, §4

SMILES	IC50 (SGLT1) [nM]	IC50 (SGLT2) [nM]
CNc1nnc(-c2cc(OC)ccc2-c2nc3ncccn3c2Nc2c(C)cccc2C)o1 [Compound A21, (2,6-Dimethylphenyl)-{2-[4-methoxy-2-(5-methylamino-1,3,4-oxadiazol-2-yl)-phenyl]imidazo[1,2-a]pyrimidin-3-yl}-amine]	> 10000	10 to 1000
CNc1nnc(-c2cccc(F)c2-c2nc3ncccn3c2Nc2c(C)cc(F)cc2C)o1 [Compound A27, (4-Fluoro-2,6-dimethylphenyl)-{2-[2-fluoro-6-(5-methylamino-1,3,4-oxadiazol-2-yl)phenyl]imidazo[1,2-a]pyrimidin-3-yl}-amine]	1000 to 10000	10 to 1000
CCc1cccc(OCC(N)=O)c1-c1nc2ncccn2c1Nc1c(Cl)cccc1Cl [Compound A7]	1000 to 10000	10 to 1000
CNc1nnc(-c2cccc(F)c2-c2nc3ncccn3c2Nc2c(C)cccc2Cl)o1 [Compound A26, (2-Chloro-6-methylphenyl)-{2-[2-fluoro-6-(5-methylamino-1,3,4-oxadiazol-2-yl)-phenyl]imidazo[1,2-a]pyrimidin-3-yl}-amine]	1000 to 10000	10 to 1000
CNc1nnc(-c2cc(Cl)cc(Cl)c2-c2nc3ncccn3c2Nc2c(C)cccc2C)o1 [Compound A16, {2-[2,4-Dichloro-6-(5-methylamino-1,3,4-oxadiazol-2-yl)phenyl]imidazo[1,2-a]-pyrimidin-3-yl}-(2,6-dimethylphenyl)amine]	1000 to 10000	10 to 1000
COC(=O)c1cccc(Cl)c1-c1nc2ncccn2c1Nc1c(C)cccc1C [Compound A20, Methyl 3-chloro-2-[3-(2,6-dimethyl-phenylamino)imidazo[1,2-a]pyrimidin-2-yl)benzoate]	> 10000	10 to 1000

More lines, now with the values ahead:

IC50 (SGLT1) [nM]	IC50 (SGLT2) [nM]	SMILES
10 to 1000	10 to 1000	CCNC(=O)c1cc(OC)cc(OC)c1-c1nc2ncccn2c1Nc1c(Cl)ccc(C)c1Cl [Compound A24, 2-[3-(2,6-dichloro-3-methylphenylamino)imidazo[1,2-a]-pyrimidin-2-yl]-N-ethyl-3,5-dimethoxybenzamide]
1000 to 10000	1000 to 10000	CCc1cccc(OCC(N)=O)c1-c1nc2ncccn2c1Nc1c(C)cccc1C [Compound A8, 2-{2-[3-(2,6-dimethylphenylamino)imidazo[1,2-a]-pyrimidin-2-yl]-3-ethylphenoxy}acetamide]
10 to 1000	10 to 1000	CNc1nnc(-c2cc(OC)cc(OC)c2-c2nc3ncccn3c2Nc2c(Cl)ccc(C)c2Cl)o1 [Compound A23, (2,6-Dichloro-3-methylphenyl)-{2-[2,4-dimethoxy-6-(5-methylamino-1,3,4-oxadiazol-2-yl)phenyl]imidazo[1,2-a]-pyrimidin-3-yl}amine]
